Inconclusive results and toxic doses are left out. Rule as the data show it: active = T/C of 150% or more; inactive = T/C below 125%.
System: L1210 leukemia ip in BDF1 mice, survival T/C
Experiment: NCI In Vivo Anticancer Drug Screen. Data for tumor model L1210 Leukemia (intraperitoneal) in B6D2F1 (BDF1) mice
Conditions: endpoint: mean survival time, higher = longer survival
In short: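 Transplanted-tumor mice were given test agent; controls received vehicle only. Survival readings from the two groups were divided (treated over control).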

[1] = dose: 100.0 mg/kg/injection, schedule: Q01DX009 (ip), vehicle: Klucel (hydroxypropylcellulose) (HPC)
[2] = dose: 200.0 mg/kg/injection, schedule: Q01DX009 (ip), vehicle: Klucel (hydroxypropylcellulose) (HPC)
[3] = dose: 400.0 mg/kg/injection, schedule: Q01DX009 (ip), vehicle: Klucel (hydroxypropylcellulose) (HPC)

Measured: T/C

O=C(NC1CCCCC1)N(O)C12CC3CC(CC(C3)C1)C2
inactive: dose: 100.0 mg/kg/injection, schedule: Q01DX001 (ip), vehicle: saline with Tween-80 108 % of control | dose: 200.0 mg/kg/injection, schedule: Q01DX001 (ip), vehicle: saline with Tween-80 92 % of control | dose: 400.0 mg/kg/injection, schedule: Q01DX001 (ip), vehicle: saline with Tween-80 95 % of control

CCOC(=O)NS(=O)(=O)c1ccccc1
inactive: [1] 100 % of control | [2] 101 % of control | [3] 87 % of control

COc1cc(NCCCCCNC(C)C)c2ncccc2c1
inactive: dose: 5.0 mg/kg/injection, schedule: Q04DX002 (ip), vehicle: saline with Tween-80 100 % of control | dose: 10.0 mg/kg/injection, schedule: Q04DX002 (ip), vehicle: saline with Tween-80 97 % of control | dose: 20.0 mg/kg/injection, schedule: Q04DX002 (ip), vehicle: saline with Tween-80 100 % of control

CN(Cc1ccc2nc(N)nc(N)c2c1)c1ccc(C(=O)NC(CCC(=O)O)C(=O)O)cc1 (stereo unspecified)
inactive: dose: 0.12 mg/kg/injection, schedule: Q01DX009 (ip), vehicle: other 123 % of control | dose: 2.1 mg/kg/injection, schedule: Q01DX009 (ip), vehicle: other 101 % of control | dose: 2.5 mg/kg/injection, schedule: Q01DX009 (ip), vehicle: saline 113 % of control | dose: 5.0 mg/kg/injection, schedule: Q01DX009 (ip), vehicle: saline 97 % of control | dose: 6.6 mg/kg/injection, schedule: Q01DX001 (ip), vehicle: other 119 % of control | dose: 6.6 mg/kg/injection, schedule: Q01DX001 (ip), vehicle: saline 119 % of control
active: dose: 0.5 mg/kg/injection, schedule: Q01DX009 (ip), vehicle: other 192 % of control | dose: 1.0 mg/kg/injection, schedule: Q01DX009 (ip), vehicle: other 190 % of control | dose: 1.25 mg/kg/injection, schedule: Q01DX009 (ip), vehicle: saline 154 % of control | dose: 5.0 mg/kg/injection, schedule: Q01DX001 (ip), vehicle: other 151 % of control | dose: 10.0 mg/kg/injection, schedule: Q01DX001 (ip), vehicle: other 159 % of control | dose: 15.0 mg/kg/injection, schedule: Q01DX001 (ip), vehicle: other 154 % of control

O=C1c2ccccc2C(=O)N1CNc1ccccc1/C(=N/Nc1ccc([N+](=O)[O-])cc1[N+](=O)[O-])c1ccccc1
inactive: dose: 100.0 mg/kg/injection, schedule: Q04DX002 (ip), vehicle: saline with Tween-80 91 % of control | dose: 200.0 mg/kg/injection, schedule: Q04DX002 (ip), vehicle: saline with Tween-80 91 % of control | dose: 400.0 mg/kg/injection, schedule: Q04DX002 (ip), vehicle: saline with Tween-80 94 % of control

O=C(c1ccccc1)N(Nc1ccccc1)c1ccccc1
inactive: dose: 50.0 mg/kg/injection, schedule: Q01DX009 (ip), vehicle: Klucel (hydroxypropylcellulose) (HPC) 94 % of control | [1] 97 % of control | dose: 100.0 mg/kg/injection, schedule: Q04DX003 (ip), vehicle: Klucel (hydroxypropylcellulose) (HPC) 98 % of control | [2] 97 % of control | dose: 200.0 mg/kg/injection, schedule: Q04DX003 (ip), vehicle: Klucel (hydroxypropylcellulose) (HPC) 93 % of control | [3] 89 % of control | dose: 400.0 mg/kg/injection, schedule: Q04DX003 (ip), vehicle: Klucel (hydroxypropylcellulose) (HPC) 98 % of control

C=CC[Se]c1ncnc2c1ncn2C1OC(CO)C(O)C1O (stereo unspecified)
inactive: dose: 12.5 mg/kg/injection, schedule: Q01DX005 (ip), vehicle: saline 100 % of control | dose: 25.0 mg/kg/injection, schedule: Q01DX005 (ip), vehicle: saline 110 % of control | dose: 50.0 mg/kg/injection, schedule: Q01DX005 (ip), vehicle: saline 104 % of control | dose: 50.0 mg/kg/injection, schedule: Q01DX009 (ip), vehicle: saline 90 % of control | dose: 100.0 mg/kg/injection, schedule: Q01DX009 (ip), vehicle: saline 88 % of control

Source: PubChem BioAssay AID248 (DTP/NCI, 2004)
